Source: ChEMBL document CHEMBL1158664, “New compounds with DNA strand-scission activity from the combined leaf and stem of Uvaria hamiltonii” (J Nat Prod, 1998)
Converted amounts (≈) assume the structure as drawn. The source made the active and inactive calls. No cut-off for these calls is given here.

What was measured:
[1] = Cytotoxicity against human 9KB cells; assay type: functional, cell-based
[2] = Induction of strand scission activity in DNA assessed as ratio of 2.5 uM drug-induced to bleomycin-induced relaxation of supercoiled DNA
[3] = Induction of strand scission activity in DNA assessed as relaxation of supercoiled DNA at 2.5 ug/ml; set-up: scale not given: the % may be the effect or the level left
[4] = Induction of strand scission activity in DNA assessed as relaxation of supercoiled DNA at 25 ug/ml; set-up: scale not given: the % may be the effect or the level left
[5] = Induction of strand scission activity in DNA assessed as ratio of 25 uM drug-induced to bleomycin-induced relaxation of supercoiled DNA

Structure (SMILES)	IC50 [1] [µg/mL]	Activity [2]	Activity [3] [%]	Activity [4]	Activity [5]
COc1cc2c(c(OC)c1OC)C(=O)/C(=C/c1ccc(O)c(O)c1)O2	> 20	10	83		
COc1cc2c(c(OC)c1OC)C(=O)CC(c1ccc(O)c(O)c1)O2 (racemic) [HAMILTONE B]	> 20			76%	1
COc1cc(O)c(C(=O)/C=C/c2ccc(O)c(O)c2)c(OC)c1OC [HAMILCONE]	8 (≈ 23.1 µM)			47%	0.6
COc1ccc([C@@H]2CC(=O)c3c(cc(OC)c(O)c3OC)O2)cc1 [HAMILTONE A]	> 20			88%	1.1
O=C(OC[C@@]12C=C[C@@H](OC(=O)c3ccccc3)[C@@H](O)[C@H]1Cc1cc(O)ccc1O2)c1ccccc1 [HEMILXANTHENE]	10 (≈ 21.2 µM)			inactive	inactive
